In patent US20180064125A1, “INHIBITION OF PATHOGENIC GROWTH ON PLANT MATERIALS USING LACTIC ACID PRODUCING MICROORGANISMS” (priority 2009, published 2018):

Tested on: E. coli O157:H7
Assay: 12 day shelf-life study of inoculated spinach rinsed with LAB, chlorine or multi-hurdle intervention at 7° C.
Set-up: species or system Escherichia coli O157:H7
Conditions: 12 day shelf-life at 7° C., in words, P<0.0001

OCl [chlorine, sodium hypochlorite]
Reductions in pathogen populations compared to control populations: Significant reductions
